This note sets out measurements from US20240246943A1, “MULTIFACETED APPROACH TO NOVEL INTERLEUKIN-6 INHIBITORS” (UNIVERSITY OF FLORIDA RESEARCH FOUNDATION, INCORPORATED, priority 2021, published 2024).

Holding throughout (assay type): cell-based
In assay [1] the test system is MDA-MB-231 breast cancer cells. Description: MTT cell viability assay, MDA-MB-231. Here is the method:
(§1) Cell viability of MDA-MB-231 breast cancer cells was evaluated by using the MTT assay in triple replicates in one experiment and repeated for three times (FIG. 3). […] The cells were incubated at 37° C. for a period of 24 hours. Escalating concentrations of IL-6/gp130 inhibitors (e.g., compounds of Formula (A), (B), (C), (D), (E), or (F) including LLM-418, bazedoxifene, LS-28-3, and COMP-D (LS-101-D)) were added in triplicate to the plates in the presence of 10% FBS. After incubation for 72 hours (unless otherwise noted), a stock solution of MTT (0.5 mg/ml) was then added to each well containing the treated cells, followed by incubation at 37° C. for 3 h. After removal of medium, the MTT dye was dissolved with spectrophotometric grade DMSO and the absorbance was read at 570 nm. The IC50 value is determined by interpolation based on the absorbance value halfway between positive and negative controls.

The subject of assay [2] is SUM159 breast cancer cells. Briefly: MTT cell viability assay, SUM159. The note with it: for pIC50 / IC50 Values in Breast Cancer Cell Lines, SUM159 / SUM159 IC50: 72 hours, Inactive = no measurable activity at 20 μM. The method, then: Cell viability of MDA-MB-231 breast cancer cells was evaluated by using the MTT assay in triple replicates in one experiment and repeated for three times (FIG. 3). MDA-MB-231 SUM159, SUM159 […], MDA-MB-231 breast cancer cells or SUM149 or HCC1937 BRCA mutant breast cancer cells were seeded in 96-well plates at a density of 3,000 cells per well. The cells were incubated at 37° C. for a period of 24 hours. Escalating concentrations of IL-6/gp130 inhibitors (e.g., compounds of Formula (A), (B), (C), (D), (E), or (F) including LLM-418, bazedoxifene, LS-28-3, and COMP-D (LS-101-D)) were added in triplicate to the plates in the presence of 10% FBS. After incubation for 72 hours (unless otherwise noted), a stock solution of MTT (0.5 mg/ml) was then added to each well containing the treated cells, followed by incubation at 37° C. for 3 h. After removal of medium, the MTT dye was dissolved with spectrophotometric grade DMSO and the absorbance was read at 570 nm. The IC50 value is determined by interpolation based on the absorbance value halfway between positive and negative controls.

The test system of assay [3] is SUM159 gp130ko breast cancer cells. Description: MTT cell viability assay, SUM159 gp130ko. The note with it: 72 hours, read-out: IC50 Values in Breast Cancer Cell Lines, SUM159 gp130ko. The method, then:
as §1

Assay [4] has as its system MDA-MB-231 Bone Metastatic breast cancer cells. Briefly: MTT cell viability assay, MDA-MB-231 Bone Metastatic. The note with it: 72 hours. The method, then:
as §1

Setting [5] is: Table 1 batch studies, MTT, 72 hours, Inactive = no measurable activity at 20 μM, read-out: IC50 Values in Breast Cancer Cell Lines, MDA-MB-231.
[6] abbreviates: Table 3 batch studies (independent from Table 1), MTT, 72 hours, Inactive = no measurable activity at 20 μM, read-out: MDA-MB-231 IC50.
Where [7] appears, read: Table 1 batch studies, read-out: IC50 Values in Breast Cancer Cell Lines, SUM159.
Setting [8] is: Table 3 batch studies (independent from Table 1), read-out: SUM159 IC50.
Setting [9] is: Homo sapiens, MDA-MB-231, Table 3 batch studies (independent from Table 1), MTT, 72 hours, Inactive = no measurable activity at 20 μM, read-out: MDA-MB-231 IC50.
[10] abbreviates: SUM159, Table 3 batch studies (independent from Table 1), read-out: SUM159 IC50.
Setting [11] is: Homo sapiens, MDA-MB-231, Table 1 batch studies, MTT, 72 hours, Inactive = no measurable activity at 20 μM, read-out: IC50 Values in Breast Cancer Cell Lines, MDA-MB-231.
Setting [12] is: Table 1 batch studies, MTT, 72 hours, Inactive = no measurable activity at 20 μM.
[13] abbreviates: Table 3 batch studies (independent from Table 1), MTT, 72 hours, Inactive = no measurable activity at 20 μM.
Where [14] appears, read: Table 3 batch studies (independent from Table 1).
Where [15] appears, read: SUM159, Table 1 batch studies, read-out: IC50 Values in Breast Cancer Cell Lines, SUM159.

pIC50: −log10 of the molar value. Like-named read-outs stand apart in the source and are kept apart here. Marks after values point to notes of the source that are not given here.

Consider `c1ccc2c(c1)nc(-c1ccc(OCCN3CCCCC3)cc1)n1nccc21` [LLM418-SC, 5-(4-(2-(piperidin-1-yl)ethoxy)phenyl)pyrazolo[1,5-c]quinazoline], for which the pIC50 in assay [1] (Homo sapiens, MDA-MB-231, Table 1 batch studies, 48-hour MTT, read-out: IC50, MDA-MB-231, 48-hour MTT) was 4.95; in assay [1] (Homo sapiens, MDA-MB-231, Table 3 batch studies, 48-hour MTT, read-out: MDA-MB-231 IC50, 48-hour MTT), 4.95.
As to `O=C(Nc1cc(F)ccc1-n1cccc1)c1ccc(OCCCN2CCCCC2)cc1` [LLM4], the pIC50 in assay [1] (setting [5]) was 4.32; in assay [1] (setting [6]) it was 4.32; in assay [2] (setting [7]) it was 4.51; in assay [2] (setting [8]), 4.51.
In the case of `Cc1c(-c2ccc(O)cc2)n(Cc2ccc(OCCN3CCCCCC3)cc2)c2ccc(O)cc12` [Bazedoxifene, bazedoxifene, reference compound], the negative logarithm of the IC50 (pIC50) in assay [1] (setting [9]) was 4.92; in assay [2] (setting [10]), 5.15.
For the compound `CC1(C)O[C@@H]2[C@@H](CO[C@@]3(Cn4cc(-c5ccc(NC(=O)c6ccc(OCCN7CCCCC7)cc6)cc5)nn4)OC(C)(C)O[C@@H]23)O1` [LS-TF-4P], the pIC50 was 4.74 in assay [1] (setting [5]); 4.74 in assay [1] (setting [6]); 4.58 in assay [2] (setting [7]); 4.58 in assay [2] (setting [8]); 4.57 in assay [3] (Table 1 batch studies); 4.57 in assay [4] (Table 3 batch studies (independent from Table 1), read-out: MDA-MB-231 Bone Metastatic IC50).
For the compound `CCCn1ccc(-c2ccccc2NC(=O)c2ccc(OCCN3CCCCC3)cc2)n1` [LLM418-Pr, N-(2-(1-propyl-1H-pyrazol-3-yl)phenyl)-4-(2-(piperidin-1-yl)ethoxy)benzamide], the pIC50 in assay [1] (setting [11]) and in assay [1] (setting [9]) was 5.24 throughout.
On to `O=C(Nc1ccccc1-c1cn([C@@H]2OC[C@@H](O)[C@H](O)[C@H]2O)nn1)c1ccc(OCCN2CCCCC2)cc1` [LS-TX-2, 4-(2-(piperidin-1-yl)ethoxy)-N-(2-(1-((2R,3R,4S,5R)-3,4,5-trihydroxytetrahydro-2H-pyran-2-yl)-1H-1,2,3-triazol-4-yl)phenyl)benzamide·acetic acid], for which the “IC50 Values in Breast Cancer Cell Lines, MDA-MB-231” value (from here on “IC50 Values … MDA-MB-231”) in assay [1] (setting [12]) is given as “Inactive”. Moreover, in assay [1] (setting [13]), the “MDA-MB-231 IC50” value was “Inactive”. Also, the “IC50 Values in Breast Cancer Cell Lines, SUM159” value (shortened to “IC50 Values … SUM159”) in assay [2] (Table 1 batch studies) was “Inactive”. Besides, the “SUM159 IC50” value in assay [2] (setting [14]) is on record as “Inactive”.
On to `O=C(Nc1ccc(-c2cn([C@@H]3OC[C@@H](O)[C@H](O)[C@H]3O)nn2)cc1)c1ccc(OCCN2CCCCC2)cc1` [LS-TX-4, 4-(2-(piperidin-1-yl)ethoxy)-N-(4-(1-((2R,3R,4S,5R)-3,4,5-trihydroxytetrahydro-2H-pyran-2-yl)-1H-1,2,3-triazol-4-yl)phenyl)benzamide·acetic acid], for which, in assay [1] (setting [12]), the “IC50 Values … MDA-MB-231” value is given as “Inactive”. Further, the “MDA-MB-231 IC50” value in assay [1] (setting [13]) is “Inactive”. The “IC50 Values … SUM159” value in assay [2] (Table 1 batch studies) is “Inactive”. Further, in assay [2] (setting [14]), the “SUM159 IC50” value is reported as “Inactive”.
As for `O=C(Nc1ccccc1-c1ccn(CC(F)(F)F)n1)c1ccc(OCCN2CCCCC2)cc1` [LLM418-MCF3, 4-(2-(piperidin-1-yl)ethoxy)-N-(2-(1-(2,2,2-trifluoroethyl)-1H-pyrazol-3-yl)phenyl)benzamide], the negative-log IC50 (pIC50) in assay [1] (setting [11]) was 3.77; in assay [1] (setting [9]) it was 3.77; in assay [2] (setting [15]), 4.80; in assay [2] (setting [10]), 4.80.
Take `O=C(Nc1ccccc1N1CCCC1)c1ccc(OCCCN2CCCCC2)cc1` [LLM4-S3, 4-(3-(piperidin-1-yl)propoxy)-N-(2-(pyrrolidin-1-yl)phenyl)benzamide]: the pIC50 is 4.31 in assay [1] (setting [11]), 4.31 in assay [1] (setting [9]), 4.34 in assay [2] (setting [15]) and 4.34 in assay [2] (setting [10]).
Take `O=C(Nc1cccc(-c2cn([C@@H]3OC[C@@H](O)[C@H](O)[C@H]3O)nn2)c1)c1ccc(OCCN2CCCCC2)cc1` [LS-TX-3, 4-(2-(piperidin-1-yl)ethoxy)-N-(3-(1-((2R,3R,4S,5R)-3,4,5-trihydroxytetrahydro-2H-pyran-2-yl)-1H-1,2,3-triazol-4-yl)phenyl)benzamide·acetic acid]: the “IC50 Values … MDA-MB-231” value in assay [1] (setting [12]) is “Inactive”. Besides, in assay [1] (setting [13]), the “MDA-MB-231 IC50” value was “Inactive”. The “IC50 Values … SUM159” value in assay [2] (Table 1 batch studies) is recorded as “Inactive”. Moreover, the “SUM159 IC50” value in assay [2] (setting [14]) is “Inactive”.
Regarding `CC1(C)O[C@@H]2[C@@H](CO[C@@]3(Cn4cc(-c5cccc(NC(=O)c6ccc(OCCN7CCCCC7)cc6)c5)nn4)OC(C)(C)O[C@@H]23)O1` [LS-TF-3P], the results for the pIC50 in assay [1] (setting [6]) and in assay [2] (setting [8]) were 4.17 and 4.80, respectively.
Take `O=C(Nc1ccccc1-c1ccn[nH]1)c1ccc(OCCN2CCCCC2)cc1` [LLM418, N-(2-(1H-pyrazol-5-yl)phenyl)-4-(2-(piperidin-1-yl)ethoxy)benzamide]: the pIC50 is 4.60 in assay [1] (setting [11]); 4.55 in assay [1] (setting [9]); 4.79 in assay [2] (setting [15]); 4.79 in assay [2] (setting [10]); 4.65 in assay [3] (SUM159, Table 1 batch studies); 4.63 in assay [4] (Homo sapiens, MDA-MB-231, Table 1 batch studies, read-out: IC50 Values in Breast Cancer Cell Lines, MDA-MB-231 Bone Metastatic). In assay [4] (Homo sapiens, MDA-MB-231, Table 3 batch studies (independent from Table 1), read-out: MDA-MB-231 Bone Metastatic IC50), the pIC50 was 4.63.
`CC(C)[C@H]1COC(=O)N1c1ccc(C(=O)Nc2ccccc2-c2cc[nH]n2)cc1` [LS-28-2, (S)—N-(2-(1H-pyrazol-3-yl)phenyl)-4-(4-isopropyl-2-oxooxazolidin-3-yl)benzamide]: the “Percent cells remaining after treatment with 20 μM compound, MDA-MB-231” value in assay [1] (Table 1 batch studies, MTT) amounted to 21%*; in assay [1] (Table 3 batch studies, MTT), 21%*. The “Percent cells remaining after treatment with 20 μM compound, SUM159” value in assay [2] (Table 1 batch studies) and in assay [2] (Table 3 batch studies) was 33%* each time.
Take `O=C(Nc1cc(F)ccc1N1CCCC1)c1ccc(OCCCN2CCCCC2)cc1` [LLM4-S2, N-(5-fluoro-2-(pyrrolidin-1-yl)phenyl)-4-(3-(piperidin-1-yl)propoxy)benzamide]: the pIC50 in assay [1] (setting [11]) is 4.32; in assay [1] (setting [9]) it was 4.32; in assay [2] (setting [15]), 4.61; in assay [2] (setting [10]) it was 4.61.
Consider `O=C(Nc1ccccc1-n1cccc1)c1ccc(OCCCN2CCCCC2)cc1` [LLM4-S1, N-(2-(1H-pyrrol-1-yl)phenyl)-4-(3-(piperidin-1-yl)propoxy)benzamide], for which the pIC50 in assay [1] (setting [11]) is 4.27; in assay [1] (setting [9]), 4.27; in assay [2] (setting [15]), 4.23; in assay [2] (setting [10]), 4.23.
